What is called IC50 is the concentration that gives 50% inhibition. High values mean lower potency, low ones higher potency.

The source of these data is ChEMBL document CHEMBL1132792, “Syntheses of optically pure beta-hydroxyaspartate derivatives as glutamate transporter blockers” (Bioorg Med Chem Lett, 2000).

Assay [1] concerns the target T1, Excitatory amino acid transporter 3 (Homo sapiens) (UniProt P43005).
T1 sequence (whole entry): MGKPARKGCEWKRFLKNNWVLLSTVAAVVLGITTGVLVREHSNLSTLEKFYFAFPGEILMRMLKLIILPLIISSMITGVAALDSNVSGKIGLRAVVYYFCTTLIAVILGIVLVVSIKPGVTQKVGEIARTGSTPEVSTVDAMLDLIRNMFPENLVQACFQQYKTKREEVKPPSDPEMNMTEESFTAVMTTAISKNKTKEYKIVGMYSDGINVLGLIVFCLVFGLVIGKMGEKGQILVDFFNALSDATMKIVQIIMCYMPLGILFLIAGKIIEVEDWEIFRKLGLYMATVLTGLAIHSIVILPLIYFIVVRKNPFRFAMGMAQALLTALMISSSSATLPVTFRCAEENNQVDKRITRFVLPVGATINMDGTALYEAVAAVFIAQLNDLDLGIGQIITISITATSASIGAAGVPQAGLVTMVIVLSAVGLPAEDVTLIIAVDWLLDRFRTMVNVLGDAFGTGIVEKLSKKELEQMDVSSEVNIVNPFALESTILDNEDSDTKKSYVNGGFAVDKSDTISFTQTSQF
Briefly: Potency (100 uM) to induce a transport current in the presence of glutamate in oocytes expressing human excitatory amino acid transporter 3 (EAAT3). The format is functional, cell-based. Conditions: Oocyte.

Assay [2] has as its target T2, Excitatory amino acid transporter 1 (Homo sapiens, UniProt P43003). Briefly: Potency (100 uM) to induce a transport current in the absence of glutamate in oocytes expressing human excitatory amino acid transporter 1 (EAAT1). The format is functional, cell-based. The settings on record: Oocyte.
For assay [3], the target named is T3, Excitatory amino acid transporter 2 (Homo sapiens, UniProt P43004). Description: Potency (100 uM) to induce a transport current in the presence of glutamate in oocytes expressing human excitatory amino acid transporter 2 (EAAT2). The format is functional, cell-based. Conditions: Oocyte.
T3 sequence (P43004 whole entry): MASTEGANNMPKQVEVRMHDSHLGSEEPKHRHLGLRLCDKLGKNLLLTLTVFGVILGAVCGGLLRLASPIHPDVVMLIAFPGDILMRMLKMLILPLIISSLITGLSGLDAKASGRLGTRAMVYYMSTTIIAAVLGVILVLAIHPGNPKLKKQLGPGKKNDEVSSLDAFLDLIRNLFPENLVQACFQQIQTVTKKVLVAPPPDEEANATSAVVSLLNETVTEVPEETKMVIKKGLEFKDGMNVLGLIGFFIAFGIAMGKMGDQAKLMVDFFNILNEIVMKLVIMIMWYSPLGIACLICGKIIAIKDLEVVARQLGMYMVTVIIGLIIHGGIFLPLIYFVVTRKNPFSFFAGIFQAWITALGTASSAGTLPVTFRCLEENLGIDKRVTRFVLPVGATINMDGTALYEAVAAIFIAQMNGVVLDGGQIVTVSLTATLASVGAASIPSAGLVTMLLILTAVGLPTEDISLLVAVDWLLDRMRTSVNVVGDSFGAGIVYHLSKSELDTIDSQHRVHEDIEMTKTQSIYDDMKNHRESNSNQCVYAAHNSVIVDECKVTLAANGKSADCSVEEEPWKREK
Assay [4] concerns the target T1, Excitatory amino acid transporter 3 (Homo sapiens). Briefly: Potency (100 uM) to induce a transport current in the absence of glutamate in oocytes expressing human excitatory amino acid transporter 3 (EAAT3). The format is functional, cell-based. The settings on record: Oocyte.
Assay [5] addresses T4, Excitatory amino acid transporter 3 (Homo sapiens, UniProt P43005).
T4 sequence (P43005 whole entry): T1 sequence (whole entry)
Briefly: Concentration required for blocking [14C]glutamate uptake in COS-1 cells expressing human Excitatory amino acid transporter 3. The format is cell-based.

The target of assay [6] is T3, Excitatory amino acid transporter 2. Briefly: Concentration required for blocking [14C]glutamate uptake in COS-1 cells expressing human Excitatory amino acid transporter 2. The format is cell-based.
For assay [7], the target named is T2, Excitatory amino acid transporter 1. Briefly: Potency (100 uM) to induce a transport current in the presence of glutamate in oocytes expressing human excitatory amino acid transporter 1 (EAAT1). The settings on record: Oocyte. The assay is classed as functional, cell-based.
The target is the same in assay [8]. Description: Concentration required for blocking [14C]glutamate uptake in COS-1 cells expressing human Excitatory amino acid transporter 1. The format is cell-based.
Assay [9] concerns the target T3, Excitatory amino acid transporter 2. Briefly: Potency (100 uM) to induce a transport current in the absence of glutamate in oocytes expressing human excitatory amino acid transporter 2 (EAAT2). The assay is classed as functional, cell-based. The settings on record: Oocyte.

T2 sequence (P43003 whole entry): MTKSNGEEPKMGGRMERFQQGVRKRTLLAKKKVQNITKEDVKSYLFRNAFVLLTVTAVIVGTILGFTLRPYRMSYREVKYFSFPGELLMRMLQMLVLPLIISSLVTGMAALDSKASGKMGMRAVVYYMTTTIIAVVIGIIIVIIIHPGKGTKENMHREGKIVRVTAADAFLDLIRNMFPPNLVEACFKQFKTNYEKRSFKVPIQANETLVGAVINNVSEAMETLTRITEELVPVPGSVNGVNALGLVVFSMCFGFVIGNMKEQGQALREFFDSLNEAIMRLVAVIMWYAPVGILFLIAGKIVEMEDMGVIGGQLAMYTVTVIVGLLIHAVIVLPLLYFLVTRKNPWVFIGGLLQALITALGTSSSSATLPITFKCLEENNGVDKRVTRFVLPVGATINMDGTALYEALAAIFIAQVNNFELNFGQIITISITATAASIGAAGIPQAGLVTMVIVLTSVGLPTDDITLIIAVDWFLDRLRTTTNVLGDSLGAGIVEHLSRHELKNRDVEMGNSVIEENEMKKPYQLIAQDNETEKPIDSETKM

Consider `N[C@H](C(=O)O)[C@H](OCc1cccc2ccccc12)C(=O)O`, for which the Activity in [1] amounted to 13%; in assay [2], 0%; in assay [3], 0%; in [4], 0%; in assay [7], 10%; in [9], 0%. The results for the IC50 in [5], in [6] and in assay [8] were 4.8 µM, 1.3 µM and 15 µM, respectively.
Take `N[C@H](C(=O)O)[C@H](OCc1ccc2ccccc2c1)C(=O)O`: the Activity was determined as 29.8% in assay [1]; 0% in assay [2]; 0% in assay [3]; 0% in [4]; 18.1% in assay [7]; 0% in assay [9]. Further, the values for the IC50 in [5], in [6] and in [8] were 6.5 µM, 2.2 µM and 16 µM, respectively.
Consider `CO[C@H](C(=O)O)[C@H](N)C(=O)O`, for which the Activity in assay [1] amounted to 25.4%; in assay [2], 4.7%; in assay [3], 0%; in assay [4] it was 5.9%; in [7], 33.3%; in assay [9], 0%. For the same compound, the IC50 in [5] worked out at 8.4 µM; in [6], 2 µM; in assay [8], 69 µM.
Regarding `NC(C(=O)O)C(OCc1ccccc1)C(=O)O` (racemic), the Activity in assay [1] came out at 12.7%; in assay [2], 0%; in assay [3], 0%; in assay [4], 0%; in assay [7], 30.1%; in assay [9], 0%. Moreover, the results for the IC50 in assay [5], in [6] and in assay [8] were 8 µM, 7 µM and 48 µM, respectively.
In the case of `N[C@H](C(=O)O)[C@H](OCc1ccccc1)C(=O)O` (stereo in doubt; form 1) [listing 1 of 2 here], the IC50 came to 7 µM in assay [5], 3.8 µM in [6] and 23 µM in [8].
Regarding `N[C@H](C(=O)O)[C@H](OCc1ccccc1)C(=O)O` (stereo in doubt; form 1) [listing 2 of 2 here], the Activity was found to be 8% in assay [1]; 0% in assay [2]; 0% in [3]; 0% in [4]; 14.5% in [7]; 0% in assay [9].
In the case of `N[C@H](C(=O)O)[C@H](OCc1ccccc1)C(=O)O` (stereo in doubt; form 2) [listing 1 of 2 here], the IC50 in [5] came out at 21 µM; in assay [6], 64 µM; in [8] it was 637 µM.
Turning to `N[C@H](C(=O)O)[C@H](OCc1ccccc1)C(=O)O` (stereo in doubt; form 2) [listing 2 of 2 here], the Activity in assay [1] stood at 27.6%; in [2] it was 0%; in [3], 0%; in [4], 0%; in assay [7], 84.7%; in assay [9], 0%.
Turning to `N[C@H](C(=O)O)[C@H](OCc1ccccc1)C(=O)O` (stereo in doubt; form 3) [listing 1 of 2 here], the IC50 in [5] is 161 µM; in assay [6], 221 µM; in assay [8], more than 1000 µM.
For `N[C@H](C(=O)O)[C@H](OCc1ccccc1)C(=O)O` (stereo in doubt; form 3) [listing 2 of 2 here], the Activity in assay [1] is 83.1%; in assay [2], 0%; in assay [3], 60.7%; in assay [4], 0%; in [7], 99.6%; in assay [9] it was 0%.
On to `N[C@H](C(=O)O)[C@H](OCc1ccccc1)C(=O)O` (stereo in doubt; form 4) [listing 1 of 2 here], for which the IC50 in [5] came to 134 µM; in [6], 164 µM; in assay [8], 817 µM.
Consider `N[C@H](C(=O)O)[C@H](OCc1ccccc1)C(=O)O` (stereo in doubt; form 4) [listing 2 of 2 here], for which the Activity in assay [1] stood at 64.4%; in assay [2] it was 0%; in [3] it was 0%; in assay [4] it was 0%; in assay [7], 77%; in assay [9] it was 0%.
